Laboratory results from PubChem BioAssay AID1259407 (Chemical Carcinogenesis Research Information System (CCRIS), 2018).
The source made the active and inactive calls. No rule for the calls is given here.

Test system: CCRIS mutagenicity, Ames/micronucleus/aberration tests
Test: CCRIS mutagenicity studies
[1] = Test System: AMES SALMONELLA TYPHIMURIUM, Strain/Indicator: TA98, Metabolic Activation: NONE, Method: STANDARD PLATE
[2] = Test System: AMES SALMONELLA TYPHIMURIUM, Strain/Indicator: TA100, Metabolic Activation: NONE, Method: STANDARD PLATE
[3] = Test System: AMES SALMONELLA TYPHIMURIUM, Strain/Indicator: TA98, Metabolic Activation: RAT, LIVER, S-9, AROCLOR 1254, Method: STANDARD PLATE
[4] = Test System: AMES SALMONELLA TYPHIMURIUM, Strain/Indicator: TA100, Metabolic Activation: RAT, LIVER, S-9, AROCLOR 1254, Method: STANDARD PLATE
[5] = Test System: AMES SALMONELLA TYPHIMURIUM, Strain/Indicator: TA98, Metabolic Activation: NONE, Method: PREINCUBATION
[6] = Test System: AMES SALMONELLA TYPHIMURIUM, Strain/Indicator: TA100, Metabolic Activation: NONE, Method: PREINCUBATION

Structure (SMILES): CCC1CCC(CCC(=O)[O-])C1.CCC1CCC(CCC(=O)[O-])CC1.[Cu+2] (centres undefined)
- mutagenic call (End Point: In vitro chromosomal aberrations, Test System: Chinese hamster ovary (CHO) cells, Metabolic Activation: None): inactive; negative
- mutagenic call (End Point: In vitro chromosomal aberrations, Test System: Chinese hamster ovary (CHO) cells, Metabolic Activation: Rat, Liver, S-9, Aroclor): inactive; negative
- mutagenic call (Test System: AMES SALMONELLA TYPHIMURIUM, Strain/Indicator: TA98, Metabolic Activation: HAMSTER, LIVER, S-9, AROCLOR 1254 (10%), Method: STANDARD PLATE): inactive; negative
- mutagenic call [1]: inactive; negative
- mutagenic call (Test System: AMES SALMONELLA TYPHIMURIUM, Strain/Indicator: TA98, Metabolic Activation: RAT, LIVER, S-9, AROCLOR 1254 (10%), Method: STANDARD PLATE): inactive; negative
- mutagenic call (Test System: AMES SALMONELLA TYPHIMURIUM, Strain/Indicator: TA100, Metabolic Activation: HAMSTER, LIVER, S-9, AROCLOR 1254 (10%), Method: STANDARD PLATE): inactive; negative
- mutagenic call [2]: inactive; negative
- mutagenic call (Test System: AMES SALMONELLA TYPHIMURIUM, Strain/Indicator: TA100, Metabolic Activation: RAT, LIVER, S-9, AROCLOR 1254 (10%), Method: STANDARD PLATE): inactive; negative
- mutagenic call (Test System: AMES SALMONELLA TYPHIMURIUM, Strain/Indicator: TA1535, Metabolic Activation: HAMSTER, LIVER, S-9, AROCLOR 1254 (10%), Method: STANDARD PLATE): inactive; negative
- mutagenic call (Test System: AMES SALMONELLA TYPHIMURIUM, Strain/Indicator: TA1535, Metabolic Activation: NONE, Method: STANDARD PLATE): inactive; negative
- mutagenic call (Test System: AMES SALMONELLA TYPHIMURIUM, Strain/Indicator: TA1535, Metabolic Activation: RAT, LIVER, S-9, AROCLOR 1254 (10%), Method: STANDARD PLATE): inactive; negative
- mutagenic call (Test System: AMES SALMONELLA TYPHIMURIUM, Strain/Indicator: TA1537, Metabolic Activation: HAMSTER, LIVER, S-9, AROCLOR 1254 (10%), Method: STANDARD PLATE): inactive; negative
- mutagenic call (Test System: AMES SALMONELLA TYPHIMURIUM, Strain/Indicator: TA1537, Metabolic Activation: NONE, Method: STANDARD PLATE): inactive; negative
- mutagenic call (Test System: AMES SALMONELLA TYPHIMURIUM, Strain/Indicator: TA1537, Metabolic Activation: RAT, LIVER, S-9, AROCLOR 1254 (10%), Method: STANDARD PLATE): inactive; negative
- mutagenic call (Test System: AMES SALMONELLA TYPHIMURIUM, Strain/Indicator: TA1538, Metabolic Activation: HAMSTER, LIVER, S-9, AROCLOR 1254 (10%), Method: STANDARD PLATE): inactive; negative
- mutagenic call (Test System: AMES SALMONELLA TYPHIMURIUM, Strain/Indicator: TA1538, Metabolic Activation: NONE, Method: STANDARD PLATE): inactive; negative
- mutagenic call (Test System: AMES SALMONELLA TYPHIMURIUM, Strain/Indicator: TA1538, Metabolic Activation: RAT, LIVER, S-9, AROCLOR 1254 (10%), Method: STANDARD PLATE): inactive; negative
- mutagenic call (Test System: MOUSE LYMPHOMA, Strain/Indicator: L5178Y (TK+/TK-), Metabolic Activation: RAT, LIVER, S-9, AROCLOR 1254, Method: SUSPENSION/PLATE): active; positive. reevaluation of results: positive
- mutagenic call (Test System: Mouse lymphoma, Strain/Indicator: L5178Y TK+/-, Metabolic Activation: Mammalian, liver, S-9): active; positive
- mutagenic call (Test System: Mouse lymphoma, Strain/Indicator: L5178Y TK+/-, Metabolic Activation: None): inactive; negative

Structure (SMILES): O=C1OCC(CCl)=C1Br
- mutagenic call [2]: active; positive

Structure (SMILES): CCOC(=O)c1[nH]c2ccccc2c1N=Cc1ccc(C)cc1
- mutagenic call (Test System: AMES SALMONELLA TYPHIMURIUM, Strain/Indicator: TA97, Metabolic Activation: NONE, Method: STANDARD PLATE): inactive; negative
- mutagenic call (Test System: AMES SALMONELLA TYPHIMURIUM, Strain/Indicator: TA97, Metabolic Activation: RAT, LIVER, S-9, AROCLOR 1254, Method: STANDARD PLATE): inactive; negative
- mutagenic call [1]: inactive; negative
- mutagenic call [3]: inactive; negative
- mutagenic call [2]: inactive; negative
- mutagenic call [4]: inactive; negative
- mutagenic call (Test System: AMES SALMONELLA TYPHIMURIUM, Strain/Indicator: TA102, Metabolic Activation: NONE, Method: STANDARD PLATE): inactive; negative
- mutagenic call (Test System: AMES SALMONELLA TYPHIMURIUM, Strain/Indicator: TA102, Metabolic Activation: RAT, LIVER, S-9, AROCLOR 1254, Method: STANDARD PLATE): inactive; negative

Structure (SMILES): CN(C)c1ccc(/C=C/C(=O)c2ccccc2)cc1
- mutagenic call [1]: inactive; negative
- mutagenic call [3]: inactive; negative
- mutagenic call [2]: inactive; negative
- mutagenic call [4]: inactive; negative

Structure (SMILES): O[C@H]1C=Cc2c(ccc3cc4c5c(ccc4cc23)[C@H](O)[C@@H](O)C=C5)[C@@H]1O
- mutagenic call [4]: inactive; negative

Structure (SMILES): O=[N+]([O-])c1cc2c(ccc3ccccc32)c2c1C=C[C@H](O)[C@H]2O
- mutagenic call [5]: active; positive
- mutagenic call (Test System: AMES SALMONELLA TYPHIMURIUM, Strain/Indicator: TA98, Metabolic Activation: RAT, LIVER, S-9, AROCLOR 1254, Method: PREINCUBATION): inactive; negative
- mutagenic call [6]: active; positive
- mutagenic call (Test System: AMES SALMONELLA TYPHIMURIUM, Strain/Indicator: TA100, Metabolic Activation: RAT, LIVER, S-9, AROCLOR 1254, Method: PREINCUBATION): active; positive

Structure (SMILES): Clc1ccc(C(Cl)(Cl)Cl)c(Cl)c1
- mutagenic call (Test System: AMES SALMONELLA TYPHIMURIUM, Strain/Indicator: TA98, Metabolic Activation: HAMSTER, LIVER, S-9, AROCLOR 1254 (30%), Method: PREINCUBATION): active; positive
- mutagenic call [5]: inactive; negative
- mutagenic call (Test System: AMES SALMONELLA TYPHIMURIUM, Strain/Indicator: TA98, Metabolic Activation: RAT, LIVER, S-9, AROCLOR 1254 (30%), Method: PREINCUBATION): active; positive
- mutagenic call (Test System: AMES SALMONELLA TYPHIMURIUM, Strain/Indicator: TA100, Metabolic Activation: HAMSTER, LIVER, S-9, AROCLOR 1254 (30%), Method: PREINCUBATION): active; positive
- mutagenic call [6]: inactive; negative
- mutagenic call (Test System: AMES SALMONELLA TYPHIMURIUM, Strain/Indicator: TA100, Metabolic Activation: RAT, LIVER, S-9, AROCLOR 1254 (30%), Method: PREINCUBATION): active; positive

Structure (SMILES): O=C(O)C(=O)C(=O)O
- mutagenic call (Test System: AMES SALMONELLA TYPHIMURIUM, Strain/Indicator: TA97, Metabolic Activation: NONE, Method: PREINCUBATION): inactive; negative
- mutagenic call (Test System: AMES SALMONELLA TYPHIMURIUM, Strain/Indicator: TA97, Metabolic Activation: RAT, LIVER, S-9, PHENOBARBITAL AND 5,6-BENZOFLAVONE, Method: PREINCUBATION): inactive; negative
- mutagenic call [5]: inactive; negative
- mutagenic call (Test System: AMES SALMONELLA TYPHIMURIUM, Strain/Indicator: TA98, Metabolic Activation: RAT, LIVER, S-9, PHENOBARBITAL AND 5,6-BENZOFLAVONE, Method: PREINCUBATION): inactive; negative
- mutagenic call [6]: inactive; negative
- mutagenic call (Test System: AMES SALMONELLA TYPHIMURIUM, Strain/Indicator: TA100, Metabolic Activation: RAT, LIVER, S-9, PHENOBARBITAL AND 5,6-BENZOFLAVONE, Method: PREINCUBATION): inactive; negative
- mutagenic call (Test System: AMES SALMONELLA TYPHIMURIUM, Strain/Indicator: TA102, Metabolic Activation: NONE, Method: PREINCUBATION): inactive; negative
- mutagenic call (Test System: AMES SALMONELLA TYPHIMURIUM, Strain/Indicator: TA102, Metabolic Activation: RAT, LIVER, S-9, PHENOBARBITAL AND 5,6-BENZOFLAVONE, Method: PREINCUBATION): inactive; negative
- mutagenic call (Test System: AMES SALMONELLA TYPHIMURIUM, Strain/Indicator: TA104, Metabolic Activation: NONE, Method: PREINCUBATION): inactive; negative
- mutagenic call (Test System: AMES SALMONELLA TYPHIMURIUM, Strain/Indicator: TA104, Metabolic Activation: RAT, LIVER, S-9, PHENOBARBITAL AND 5,6-BENZOFLAVONE, Method: PREINCUBATION): inactive; negative
